Test results reported in ChEMBL document CHEMBL5352445, “Design and synthesis of functionalized 4-aryl-Catechol derivatives as new antiinflammtory agents with in vivo efficacy” (Eur J Med Chem, 2022).
Active and inactive are the calls of the source. The calls are words filed in the database; no cut-off is given here.

Columns and labels:
[1] = biological target: T1, Polyunsaturated fatty acid 5-lipoxygenase (Homo sapiens, UniProt P09917); experiment: Inhibition of 5-lipoxygenase in human PMNL cells using arachidonic acid as substrate preincubated with compound for 15 mins followed by A23187 and substrate addition and measured after 10 mins by HPLC analysis; type: cell-based
T1 sequence (P09917 whole entry): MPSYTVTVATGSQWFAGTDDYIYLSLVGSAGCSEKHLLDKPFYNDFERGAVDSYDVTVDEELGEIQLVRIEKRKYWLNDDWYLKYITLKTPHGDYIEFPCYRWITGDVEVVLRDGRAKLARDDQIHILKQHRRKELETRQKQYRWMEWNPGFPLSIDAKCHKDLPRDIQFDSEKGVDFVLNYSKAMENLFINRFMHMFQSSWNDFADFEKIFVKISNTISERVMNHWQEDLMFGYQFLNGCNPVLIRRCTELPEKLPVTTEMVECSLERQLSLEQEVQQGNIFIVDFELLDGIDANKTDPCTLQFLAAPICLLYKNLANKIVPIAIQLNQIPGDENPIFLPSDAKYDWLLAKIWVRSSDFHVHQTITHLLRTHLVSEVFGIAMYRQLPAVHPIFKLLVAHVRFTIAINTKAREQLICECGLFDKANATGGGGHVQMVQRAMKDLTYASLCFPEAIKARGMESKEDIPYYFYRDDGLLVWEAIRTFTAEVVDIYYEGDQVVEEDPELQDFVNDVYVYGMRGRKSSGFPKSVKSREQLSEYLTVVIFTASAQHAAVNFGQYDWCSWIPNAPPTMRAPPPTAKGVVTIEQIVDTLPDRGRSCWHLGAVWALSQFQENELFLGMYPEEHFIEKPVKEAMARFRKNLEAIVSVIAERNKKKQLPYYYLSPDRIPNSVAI

[2] = biological target: T2, Polyunsaturated fatty acid lipoxygenase ALOX15 (Homo sapiens) (UniProt P16050); experiment: Inhibition of 15-lipoxygenase in human PMNL cells using arachidonic acid as substrate assessed as residual activity at 10 uM preincubated with compound for 15 mins followed by A23187 and substrate addition and measured after 10 mins by HPLC analysis relative to control; type: cell-based; details: time 25.0 min
T2 sequence (whole entry): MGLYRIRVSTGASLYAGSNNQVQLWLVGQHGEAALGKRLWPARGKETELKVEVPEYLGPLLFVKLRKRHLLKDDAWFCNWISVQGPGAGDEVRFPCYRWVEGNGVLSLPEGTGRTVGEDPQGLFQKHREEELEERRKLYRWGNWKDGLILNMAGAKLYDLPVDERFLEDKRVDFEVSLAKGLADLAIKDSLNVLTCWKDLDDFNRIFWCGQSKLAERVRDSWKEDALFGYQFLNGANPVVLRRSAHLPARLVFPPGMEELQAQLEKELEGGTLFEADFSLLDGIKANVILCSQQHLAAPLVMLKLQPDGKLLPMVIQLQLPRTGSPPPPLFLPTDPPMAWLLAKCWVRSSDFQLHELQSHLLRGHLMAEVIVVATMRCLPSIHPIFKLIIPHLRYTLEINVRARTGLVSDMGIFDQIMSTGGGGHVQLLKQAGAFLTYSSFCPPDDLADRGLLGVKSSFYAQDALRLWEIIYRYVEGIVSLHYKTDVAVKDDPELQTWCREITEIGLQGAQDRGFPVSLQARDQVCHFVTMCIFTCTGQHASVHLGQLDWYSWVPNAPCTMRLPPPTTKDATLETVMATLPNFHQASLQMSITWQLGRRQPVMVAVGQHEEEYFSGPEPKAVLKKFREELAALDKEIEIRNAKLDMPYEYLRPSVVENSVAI

[3] = Antioxidant activity assessed as DPPH radical scavenging activity by ultraviolet spectrophotometric analysis; type: functional
[4] = biological target: T1, Polyunsaturated fatty acid 5-lipoxygenase; experiment: Inhibition of recombinant human 5-lipoxygenase expressed in Escherichia coli BL21 using arachidonic acid as substrate preincubated for 5 to 10 mins with compound followed by substrate addition and measured after 10 mins by HPLC analysis
[5] = Antioxidant activity assessed as quercetin equivalent of Ferric ion TPTZ reducing activity incubated for 6 mins by FRAP assay; type: functional
[6] = biological target: T3, Polyunsaturated fatty acid lipoxygenase ALOX12 (Homo sapiens) (UniProt P18054); experiment: Inhibition of 12-lipoxygenase in human PMNL cells using arachidonic acid as substrate assessed as residual activity at 10 uM preincubated with compound for 15 mins followed by A23187 and substrate addition and measured after 10 mins by HPLC analysis relative to control; type: cell-based; details: time 25.0 min
T3 sequence (whole entry): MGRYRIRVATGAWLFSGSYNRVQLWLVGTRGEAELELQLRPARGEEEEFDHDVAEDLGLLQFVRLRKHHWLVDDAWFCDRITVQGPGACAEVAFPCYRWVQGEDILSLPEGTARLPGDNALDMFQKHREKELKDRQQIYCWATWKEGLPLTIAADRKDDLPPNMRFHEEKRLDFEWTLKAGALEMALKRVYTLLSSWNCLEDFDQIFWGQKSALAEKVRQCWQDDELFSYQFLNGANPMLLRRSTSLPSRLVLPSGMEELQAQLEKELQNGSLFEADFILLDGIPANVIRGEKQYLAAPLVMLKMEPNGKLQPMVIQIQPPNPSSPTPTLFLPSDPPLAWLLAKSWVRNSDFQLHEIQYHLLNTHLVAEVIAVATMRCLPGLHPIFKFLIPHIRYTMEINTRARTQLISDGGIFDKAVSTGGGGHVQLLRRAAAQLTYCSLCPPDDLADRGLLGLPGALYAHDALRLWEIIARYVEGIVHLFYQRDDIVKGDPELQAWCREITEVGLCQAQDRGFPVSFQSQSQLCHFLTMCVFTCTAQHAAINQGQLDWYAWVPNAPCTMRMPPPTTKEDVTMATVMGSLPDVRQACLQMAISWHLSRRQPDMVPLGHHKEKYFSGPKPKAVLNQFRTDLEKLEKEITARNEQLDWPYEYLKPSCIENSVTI

[7] = biological target: T1, Polyunsaturated fatty acid 5-lipoxygenase; experiment: Inhibition of 5-LOX in human PMNL cells; type: cell-based
Mus musculus [8] = experiment: Anti-inflammatory activity against OVA-sensitized isolated perfused lung mouse model assessed as reduction in Ach-induced bronchoconstriction at 0.1 to 1 mg/kg, ip preadministered with compound for 30 mins followed by OVA challenge and measured 24 hrs after last aerosolized OVA challenge; type: functional, organism-based; details: dose 0.1-1 mg/kg, time 24.5 hrs
[9] = biological target: T3, Polyunsaturated fatty acid lipoxygenase ALOX12 (Homo sapiens); experiment: Inhibition of 12-lipoxygenase in human PMNL cells using arachidonic acid as substrate assessed as residual activity at 1 uM preincubated with compound for 15 mins followed by A23187 and substrate addition and measured after 10 mins by HPLC analysis relative to control; type: cell-based; details: time 25.0 min
[10] = biological target: T2, Polyunsaturated fatty acid lipoxygenase ALOX15 (Homo sapiens); experiment: Inhibition of 15-lipoxygenase in human PMNL cells using arachidonic acid as substrate assessed as residual activity at 1 uM preincubated with compound for 15 mins followed by A23187 and substrate addition and measured after 10 mins by HPLC analysis relative to control; type: cell-based; details: time 25.0 min
Mus musculus [11] = experiment: Antiinflammatory activity in carrageenan induced mouse paw edema model assessed as reduction in hind paw swelling at 0.1 to 10 mg/kg, ip preadministered with compound for 30 mins followed by carrageenan administration and measured upto 72 hrs by hydroplethismometer; type: functional, organism-based; details: dose 0.1-10 mg/kg, time <= 72.5 hrs
Mus musculus [12] = experiment: Antiinflammatory activity against zymosan-induced air pouch mouse model assessed as inhibition of cell migration at 0.1 mg/kg, ip preadministered with compound for 30 mins followed by sterile air injection three days once for 6 days and measured 4 hrs after zymosan administration by optical microscopic analysis; type: functional, organism-based; details: time 148.5 hrs

Row | SMILES | IC50 [1] [µM] | Activity [2] [%] | EC50 [3] [µM] | IC50 [4] [µM] | EC50 [5] [µM] | Activity [6] [%] | IC50 [7] [µM] | Activity [9] [%] | Activity [10] [%] | Activity (Mus musculus [8]) | Activity (Mus musculus [11]) | Activity (Mus musculus [12])
1 | Oc1ccc(-c2cccc3c2sc2ccccc23)cc1O | 0.25 | 70.5 | 82 | 0.007 | 1380 | 71.5 | – | – | – | – | – | –
2 | Oc1ccc(-c2ccccc2)cc1O | 0.47 | 112 | 46 | 0.05 | 190 | 86.1 | – | – | – | – | – | –
3 | Oc1ccc(-c2cccc(Cl)c2)cc1O | 0.21 | 84.1 | 74 | 0.02 | 610 | 86.6 | – | – | – | – | – | –
4 | CCCCCCCCCCCCc1c(O)c(O)cc(OC)c1OC | – | – | – | – | – | – | 0.03 | – | – | – | – | –
5 | CC(c1cc2ccccc2s1)N(O)C(N)=O (stereo not drawn) | – | – | – | – | – | – | – | – | – | Active | – | –
6 | Oc1ccc(-c2ccc3ccccc3c2)cc1O | 0.32 | 57.2 | 53 | 0.007 | 370 | 93.8 | – | – | – | – | – | –
7 | CCCCCCCCCCCC1=C(O)C(=O)C=C(O)C1=O [EMBELIN] | – | – | – | – | – | – | 1.5 | – | – | – | – | –
8 | CCOc1ccc2ccccc2c1-c1ccc(O)c(O)c1 | 0.27 | 82.8 | 37 | 0.01 | 970 | 88.8 | – | – | – | – | – | –
9 | Oc1ccc(-c2cccc3c2Sc2ccccc2S3)cc1O | 0.23 | – | – | 0.008 | – | – | – | – | – | – | – | –
10 | COC1=CC(=O)C(O)=C(C[C@]2(C)CC[C@@]3(C)C(C)=CCC[C@@H]3[C@@H]2C)C1=O | – | – | – | – | – | – | 10 | – | – | – | – | –
11 | Oc1ccc(-c2c3ccccc3cc3ccccc23)cc1O | 2.34 | – | 51 | 0.01 | 890 | 49.4 | – | – | 114 | – | – | –
12 | Oc1ccc(-c2cc3ccccc3o2)cc1O | 1.11 | 71.1 | 49 | 0.03 | 460 | 80.6 | – | – | – | – | – | –
13 | Oc1ccc(-c2cccc3c2oc2ccccc23)cc1O | 0.21 | 70.3 | 54 | 0.076 | 3080 | 69.5 | – | – | – | Active | Active | Active

Continued, in another order:

Row | IC50 [1] [µM] | Activity [2] [%] | EC50 [3] [µM] | IC50 [4] [µM] | EC50 [5] [µM] | Activity [6] [%] | IC50 [7] [µM] | Activity [9] [%] | Activity [10] [%] | SMILES | Activity (Mus musculus [8]) | Activity (Mus musculus [11]) | Activity (Mus musculus [12])
14 | – | – | – | – | – | – | 10 | – | – | O=C1C=C(O)C(=O)C(CC2CCC3CCCCC3C2)=C1O (stereo not drawn) | – | – | –
15 | 0.24 | 84.8 | 71 | 0.04 | 70 | 89.6 | – | 74 | – | Oc1ccc(-c2ccc3c(c2)OCCO3)cc1O | – | – | –
16 | – | – | – | – | – | – | 4.4 | – | – | Oc1cc(O)c(O)c(CC2CCC3CCCCC3C2)c1O (stereo not drawn) | – | – | –
17 | 0.26 | 91.4 | 64 | 0.02 | 560 | 74.9 | – | – | – | Oc1ccc(-c2ccc(Cl)cc2)cc1O | – | – | –
18 | 1.33 | 80.8 | 275 | 0.21 | 650 | 75 | – | – | – | Oc1ccc(-c2ccc(O)c(O)c2)cc1 | – | – | –
